Non-standard residues stand in square brackets, D forms with d. Residues, ends and D or L forms follow the SMILES beside them. Sar = CNCC(=O)O
Columns and labels:
[1] = not given; remark: listed apart in the source
[2] = not given; remark: listed apart in the source
[3] = method code SF-HPLC, from DOI: 10.1021/jf0483669, PMID: 15913295; conditions: pH 7.4
[4] = method code SF, from DOI: 10.1021/jm5017544, PMID: 25671691; conditions: pH 7.4
[5] = not given; remark: listed apart in the source
[6] = method code SF-RC, from DOI: 10.1016/j.nucmedbio.2011.10.019, PMID: 22226022; conditions: pH 7.4
[7] = not given; remark: listed apart in the source
[8] = method code SF-HPLC, from DOI: 10.1016/j.ejpb.2012.03.006, PMID: 22469554
[9] = method code SF-HPLC, from DOI: 10.1023/a:1015837931256, PMID: 1788153; conditions: pH 7.4
[10] = not given; remark: listed apart in the source
[11] = not given; remark: listed apart in the source
[12] = method code SF, from Zhang, H, Oberg. B.; Liu, X.; Fan, Z.; Jia, J.; et, a. (2008). Octanol/water partition coefficient determination of novel fungicide SYP-3343 by flask-shaking method using HPLC. Journal of Safety and …; conditions: pH 5.0
[13] = method code SF, from DOI: 10.1016/j.ejpb.2011.02.007, PMID: 21329757
[14] = not given; remark: listed apart in the source
[15] = method code SF, from DOI: 10.1002/cmdc.201000013, PMID: 20373323; conditions: pH 7.4
[16] = method code SF, from DOI: 10.1023/a:1015958526423, PMID: 2095573
[17] = method code RP-TLC, from DOI: 10.1016/s0021-9673(03)00617-4, PMID: 12830921
[18] = method code SF, from DOI: 10.1021/jm9910932, PMID: 10633041; conditions: pH 7.4
[19] = method code SF, from DOI: 10.1021/jm0201114, PMID: 12238930; conditions: pH 7.4
[20] = method code SF-RC, from DOI: 10.1016/j.nucmedbio.2006.10.003, PMID: 17210465; conditions: pH 7.4
[21] = method code G-HPLC, from DOI: 10.1016/s0045-6535(97)00024-6
[22] = method code SF-AS, from DOI: 10.1248/cpb.26.2832
[23] = method code SF-HPLC, from DOI: 10.1248/cpb.39.1032
[24] = method code SF, from DOI: 10.1021/jm4003632, PMID: 23662903; conditions: pH 7.4
[25] = method code SF, from DOI: 10.1021/bi00418a003, PMID: 3196678
[26] = method code SF-RC, from DOI: 10.1002/jlcr.3404, PMID: 27126914; conditions: pH 7.4
[27] = method code SF-AS, from DOI: 10.1016/j.ejmech.2010.07.027, PMID: 20705371
[28] = method code SF-RC, from DOI: 10.1016/0969-8051(94)00118-4, PMID: 7550031; conditions: pH 7.4
[29] = not given; remark: listed apart in the source
[30] = method code SF-GR, from DOI: 10.1016/s0022-3565(25)32611-x, PMID: 7230009
[31] = method code SF, from Huang, J.; Leng, X. (1993). Interaction of rat hepatocyte and cytochrome P 450 with pyrethroids in vitro. Dong Wu Xue Bao, 39(4)418-423.
[32] = method code SF-AS, from DOI: 10.1016/s0021-9673(03)00617-4, PMID: 12830921
[33] = method code SF-AS, from PMID: 17296250; conditions: pH 7.2
[34] = method code SF, from DOI: 10.1016/j.bmcl.2013.12.011, PMID: 24342238
[35] = method code SF-HPLC, from DOI: 10.1016/j.ejps.2016.07.010, PMID: 27422078; conditions: pH 7.4
[36] = method code SF-AS, from PMID: 474167
[37] = method code SF-HPLC, from DOI: 10.1002/ps.2780290114
[38] = method code SF, from DOI: 10.1016/j.ejmech.2008.03.040, PMID: 18511157; conditions: pH 7.4
[39] = method code SF-RC, from DOI: 10.1016/0378-5173(86)90124-9
[40] = method code SF, from PMID: 718082

Compound: O=C(CN1C(=O)c2ccccc2C1=O)N1CCN(Cc2ccc(I)cc2)CC1
- logP: 3.6

Compound: O=C(NC1CCCCCCC1)NS(=O)(=O)c1cnccc1Nc1cccc(C(F)(F)F)c1
- logP [1]: 2.29

Compound: CC(C)c1nc(N(C)S(C)(=O)=O)nc(-c2ccc(F)cc2)c1/C=C\C(O)CC(O)CC(=O)O (stereo unspecified)
- logP [2]: 2.4

Compound: O=c1c(-c2ccc(O)cc2)coc2cc(O[C@@H]3O[C@H](CO)[C@@H](O)[C@H](O)[C@H]3O)cc(O)c12
- logD [3]: 0.97

Compound: CN(C)c1ccc(N=Nc2nc3ccc(OCCOCCOCCF)cc3s2)cc1
- logD [4]: 2.05

Compound: CC[C@H](C)[C@H](N)C(=O)N[C@@H](CC(C)C)C1(c2ccc(Cl)cc2)CCC1
- logP [5]: 4.75

Compound: CCCCOc1c(OC)ccc2cc(C(=O)NCc3ccc(F)cc3)c(=O)[nH]c12
- logD [6]: 4.4

Compound: COc1cc2c(N)nc(N3CCN(C(=O)OCC(C)(C)O)CC3)nc2c(OC)c1OC
- logP [7]: 1.3

Compound: O=C(CCCCCCCC(=O)Oc1ccc(O)cc1)Oc1ccc(O)cc1
- logP [8]: 4.99

Compound: Nc1nc2c(ncn2COCCOC(=O)c2ccc(CN3CCOCC3)cc2)c(=O)[nH]1
- logD [9]: -0.05

Compound: O=C(O)c1[nH]c2cc(Cl)cc(Cl)c2c1CN1CC(=O)N(c2cccc(OCCF)c2)C1=O
- logP [10]: 2.16

Compound: CCN(CC)C(=O)Cc1c(-c2ccc(OC)cc2)nn2c(C)cc(C)nc12
- logP [11]: 2.44

Compound: CO/C=C(/C(=O)OC)c1ccccc1COc1cc(C)nn1-c1ccc(Cl)cc1
- logD [12]: 4.37

Compound: C#C[C@]1(O)CC[C@H]2[C@@H]3CCC4=Cc5oncc5C[C@]4(C)[C@H]3CC[C@@]21C
- logP [13]: 4.21

Compound: CCCCCCN1C(=O)NC(c2ccccc2)(c2ccccc2)C1=O
- logP [14]: 4.39

Compound: O=C1NC(=O)C(c2ccc(Oc3ccccc3)cc2)(N2CCN(CCF)CC2)C(=O)N1
- logD [15]: 2.15

Compound: COc1cc(C)c(/C=C/C(C)=C/C=C/C(C)=C/C(=O)O)c(C)c1C
- logP [16]: 6.4

Compound: CCOC(=O)C1=C[C@]2(CC)CCCN3CCc4c(n1c1ccccc41)[C@@H]32
- logP [17]: 4.23

Compound: CC(=O)NCC(=O)N(C)CC(=O)NC(CC(C)C)C(=O)NC(Cc1ccccc1)C(N)=O (stereo unspecified) (Ac-G[Sar]LF-NH2; configuration not given here)
- logD [18]: 1.64

Compound: COc1cc2ncnc(N3CCN(C(=S)NCCc4ccco4)CC3)c2cc1OC
- logD [19]: 2.75

Compound: CN(C)c1ccc(C=Cc2ccc(OCCOCCOCCF)cc2)cc1
- logD [20]: 2.41

Compound: c1ccc2nc3c4ccccc4c4ccccc4c3cc2c1
- logP [21]: 5.66

Compound: CC(=O)[C@H]1CC[C@H]2[C@@H]3CCC4=CC(=O)CC[C@]4(C)[C@H]3C(O)C[C@]12C (stereo partly specified)
- logP [22]: 2.36

Compound: C=C[C@@]1(C)CC(=O)[C@]2(O)[C@@]3(C)[C@@H](O)CCC(C)(C)[C@@H]3[C@H](O)[C@H](OC(C)=O)[C@@]2(C)O1
- logP [23]: 3.12

Compound: CC(C)n1ncnc1-c1nc2c(s1)CCOc1cc(-c3cnn(CCO)c3)ccc1-2
- logD [24]: 3.9

Compound: C[C@]12CC[C@@H]3c4ccc(CCCO)cc4CC[C@H]3[C@@H]1CC[C@@H]2O
- logP [25]: 2.7

Compound: Cn1cc(C2=C(c3coc4ccccc34)C(=O)NC2=O)c2cc(I)ccc21
- logD [26]: 3.18

Compound: CC(C)(C)c1cc(CN2CCOCC2)c(O)c(CN2CCOCC2)c1
- logP [27]: 2.03

Compound: COc1cc2c(cc1OC)C1CC(O)(C=CI)C(CC(C)C)CN1CC2 (stereo unspecified)
- logD [28]: 3.24

Compound: COc1cc2c(cc1OC)C1Cc3ccc(OC)c(OC)c3CN1CC2 (stereo unspecified)
- logP [29]: 2.6

Compound: CC1C2CCC3C(O)C2(CC(O)C2(O)C1CC(O)C2(C)C)CC3(C)O (stereo unspecified)
- logP [30]: 1.51

Compound: CC1(C)C(C(=O)OC(C#N)c2cccc(Oc3ccccc3)c2)C1(C)C (stereo unspecified)
- logP [31]: 5.5

Compound: CCC12CCCN3CCc4c(n(c5ccccc45)C(O)(C(=O)OC)C1)C32 (stereo unspecified)
- logP [32]: 2.96

Compound: CC(C=CC1=C(C)CCC1(C)C)=CC=CC(C)=CC=NNC(N)=S
- logD [33]: 1.05

Compound: COc1cc(C=CC(O)=CC(=O)C=Cc2ccc(O)c(N(C)C)c2)ccc1O
- logP [34]: 3.65

Compound: Cc1cc(=O)c2c(O)cc(O)c(C3CCN(C)CC3OC(=O)C(C)(C)C)c2o1 (stereo unspecified)
- logD [35]: 1.66

Compound: CC(=O)[C@@]1(O)CC[C@H]2[C@@H]3CCC4=CC(=O)CC[C@]4(C)[C@H]3CC[C@@]21C
- logP [36]: 3.19

Compound: CCCCS/C(=N\c1cccnc1)SCc1ccc(C(C)(C)C)cc1
- logP [37]: 7

Compound: N#Cc1c(C(=O)NC2CCCCC2)nn(-c2ccc(Cl)cc2Cl)c1-c1ccc(I)cc1
- logD [38]: 3.9

Compound: CCCCC[C@H](O)/C=C/[C@@H]1[C@@H](C/C=C\CCCC(=O)OC)[C@@H](O)C[C@H]1O
- logP [39]: 3.07

Compound: CC(=O)Nc1c(I)c(COC2C(O)C(O)OC(CO)C2O)c(I)c(COC2C(O)C(O)OC(CO)C2O)c1I (stereo unspecified)
- logP [40]: -1.92
